In patent publication US11447466B2, “Substituted indole compounds useful as inhibitors of TLR7/8/9” (BRISTOL-MYERS SQUIBB COMPANY, priority 2017, dated 2022):

Legend:
Format in all cases: cell-based
human TLR9 = target: T1, human TLR9 (Homo sapiens, UniProt Q9NR96); assay: TLR9 inhibition reporter assay (HEK-Blue SEAP reporter, ODN2006 stimulation); conditions: HEK-Blue cells overexpressing human TLR9, SEAP reporter, ODN2006 5 nM, 22 hour incubation
T1 construct: host or cells: HEK-Blue cells
T1 sequence (Q9NR96 26-1032): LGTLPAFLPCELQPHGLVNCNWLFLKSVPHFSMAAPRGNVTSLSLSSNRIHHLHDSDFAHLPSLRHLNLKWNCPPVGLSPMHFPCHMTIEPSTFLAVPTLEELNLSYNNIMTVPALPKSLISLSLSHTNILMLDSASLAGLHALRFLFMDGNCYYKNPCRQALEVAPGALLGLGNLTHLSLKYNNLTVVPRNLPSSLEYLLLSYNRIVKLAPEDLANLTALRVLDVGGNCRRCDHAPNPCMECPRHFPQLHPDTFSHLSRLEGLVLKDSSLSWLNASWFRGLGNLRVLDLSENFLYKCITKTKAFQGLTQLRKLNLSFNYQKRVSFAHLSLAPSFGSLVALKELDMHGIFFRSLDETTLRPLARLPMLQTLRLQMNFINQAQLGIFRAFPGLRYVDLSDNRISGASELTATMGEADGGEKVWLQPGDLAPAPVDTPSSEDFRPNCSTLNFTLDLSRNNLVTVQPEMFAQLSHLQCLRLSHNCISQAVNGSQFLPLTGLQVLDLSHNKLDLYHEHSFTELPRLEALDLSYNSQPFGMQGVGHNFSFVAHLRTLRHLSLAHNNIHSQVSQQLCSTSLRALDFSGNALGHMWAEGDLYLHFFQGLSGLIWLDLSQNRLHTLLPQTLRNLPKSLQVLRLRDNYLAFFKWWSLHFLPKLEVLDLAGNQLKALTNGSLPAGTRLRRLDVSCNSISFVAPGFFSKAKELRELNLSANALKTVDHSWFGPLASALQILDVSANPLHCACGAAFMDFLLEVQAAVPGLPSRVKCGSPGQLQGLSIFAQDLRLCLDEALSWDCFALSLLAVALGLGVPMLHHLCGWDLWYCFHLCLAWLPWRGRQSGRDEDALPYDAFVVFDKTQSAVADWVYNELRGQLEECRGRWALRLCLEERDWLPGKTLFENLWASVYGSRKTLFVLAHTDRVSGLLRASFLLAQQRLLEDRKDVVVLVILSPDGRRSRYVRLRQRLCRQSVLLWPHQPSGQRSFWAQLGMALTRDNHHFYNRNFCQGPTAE
How it was run: (§1)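 Dose–response from 0.05 nM to 50 μM was run in HEK-Blue human TLR7, TLR8 and TLR9 reporter cells. After 30 min at room temperature with compound, ligand was added (TLR7 gardiquimod 7.5 μM; TLR8 R848 15.9 μM; TLR9 ODN2006 5 nM) and SEAP measured next day, at 22 h.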

human TLR8 = target: T2, human TLR8 (Homo sapiens, UniProt Q9NR97); assay: TLR8 inhibition reporter assay (HEK-Blue SEAP reporter, R848 stimulation); conditions: HEK-Blue cells overexpressing human TLR8, SEAP reporter, R848 15.9 μM, 22 hour incubation
T2 construct: host or cells: HEK-Blue cells
T2 sequence (Q9NR97 27-1041): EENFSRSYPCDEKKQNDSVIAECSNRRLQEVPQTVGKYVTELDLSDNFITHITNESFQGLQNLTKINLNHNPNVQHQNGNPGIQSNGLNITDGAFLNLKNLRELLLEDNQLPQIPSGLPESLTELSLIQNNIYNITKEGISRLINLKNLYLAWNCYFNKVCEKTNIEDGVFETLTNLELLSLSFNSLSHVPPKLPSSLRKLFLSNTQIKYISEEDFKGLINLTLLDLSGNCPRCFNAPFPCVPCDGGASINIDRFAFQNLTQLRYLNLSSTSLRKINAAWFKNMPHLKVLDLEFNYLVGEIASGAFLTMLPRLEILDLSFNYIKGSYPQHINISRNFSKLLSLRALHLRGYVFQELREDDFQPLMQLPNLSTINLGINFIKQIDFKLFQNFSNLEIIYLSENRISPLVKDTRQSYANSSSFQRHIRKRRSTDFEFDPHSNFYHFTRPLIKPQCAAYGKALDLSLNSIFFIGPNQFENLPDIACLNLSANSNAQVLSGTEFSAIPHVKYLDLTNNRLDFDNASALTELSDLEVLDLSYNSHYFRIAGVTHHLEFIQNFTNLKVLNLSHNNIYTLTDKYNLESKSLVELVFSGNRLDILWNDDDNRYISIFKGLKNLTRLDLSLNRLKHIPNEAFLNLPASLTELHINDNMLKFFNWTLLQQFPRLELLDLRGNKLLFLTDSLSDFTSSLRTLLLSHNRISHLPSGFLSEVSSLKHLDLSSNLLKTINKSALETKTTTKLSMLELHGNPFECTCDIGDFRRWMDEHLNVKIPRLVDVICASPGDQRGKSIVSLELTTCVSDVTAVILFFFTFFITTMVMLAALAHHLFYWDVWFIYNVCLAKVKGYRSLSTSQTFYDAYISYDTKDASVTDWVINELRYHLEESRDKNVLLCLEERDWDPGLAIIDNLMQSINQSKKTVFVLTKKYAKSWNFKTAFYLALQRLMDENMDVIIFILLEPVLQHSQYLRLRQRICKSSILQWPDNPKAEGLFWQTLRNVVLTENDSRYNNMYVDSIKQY
How it was run: as §1

human TLR7 = target: T3, human TLR7 (Homo sapiens, UniProt Q9NYK1); assay: TLR7 inhibition reporter assay (HEK-Blue SEAP reporter, gardiquimod stimulation); conditions: HEK-Blue cells overexpressing human TLR7, SEAP reporter, gardiquimod 7.5 μM, 22 hour incubation
T3 construct: host or cells: HEK-Blue cells
T3 sequence (Q9NYK1 27-1049): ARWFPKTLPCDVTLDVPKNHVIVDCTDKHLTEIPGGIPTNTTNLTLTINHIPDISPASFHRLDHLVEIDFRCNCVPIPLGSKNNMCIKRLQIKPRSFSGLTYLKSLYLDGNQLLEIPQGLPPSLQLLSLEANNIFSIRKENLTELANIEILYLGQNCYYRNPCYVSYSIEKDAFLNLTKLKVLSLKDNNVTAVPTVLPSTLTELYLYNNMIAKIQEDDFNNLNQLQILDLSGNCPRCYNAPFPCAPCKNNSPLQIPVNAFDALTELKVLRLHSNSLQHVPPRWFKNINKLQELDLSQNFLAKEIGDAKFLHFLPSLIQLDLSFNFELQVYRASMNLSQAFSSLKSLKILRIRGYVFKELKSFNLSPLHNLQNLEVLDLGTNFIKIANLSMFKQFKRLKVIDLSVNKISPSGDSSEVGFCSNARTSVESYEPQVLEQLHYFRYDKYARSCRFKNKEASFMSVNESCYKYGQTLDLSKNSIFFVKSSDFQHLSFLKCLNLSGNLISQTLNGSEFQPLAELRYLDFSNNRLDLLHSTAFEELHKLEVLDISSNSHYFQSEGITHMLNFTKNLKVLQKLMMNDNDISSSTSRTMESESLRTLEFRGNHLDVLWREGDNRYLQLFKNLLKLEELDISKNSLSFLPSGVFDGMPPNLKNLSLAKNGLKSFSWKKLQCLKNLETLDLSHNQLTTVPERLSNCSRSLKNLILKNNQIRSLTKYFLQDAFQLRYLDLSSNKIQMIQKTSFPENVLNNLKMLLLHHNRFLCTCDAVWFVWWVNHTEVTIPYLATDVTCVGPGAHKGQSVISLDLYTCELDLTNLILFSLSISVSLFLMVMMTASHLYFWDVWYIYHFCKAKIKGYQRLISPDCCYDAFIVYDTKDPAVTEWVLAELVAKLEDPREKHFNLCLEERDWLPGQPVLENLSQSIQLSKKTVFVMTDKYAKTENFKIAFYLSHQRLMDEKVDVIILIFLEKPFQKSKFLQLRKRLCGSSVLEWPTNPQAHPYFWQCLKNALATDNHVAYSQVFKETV
How it was run: as §1

Cc1cc(-c2[nH]c3ccc(C4CCN(CC(=O)NCC(C)(C)O)CC4)cc3c2C(C)C)cn(C)c1=O [Example 124, 2-(4-(2-(1,5-dimethyl-6-oxo-1,6-dihydropyridin-3-yl)-3-isopropyl-1H-indol-5-yl)piperidin-1-yl)-N-(2-hydroxy-2-methylpropyl)acetamide]
IC50 (human TLR9): ≥ 50000 nM
IC50 (human TLR8): 11.3 nM
IC50 (human TLR7): 9.7 nM

CC(C)c1c(-c2ccc(=O)n(C(C)C)c2)[nH]c2ccc(C3CCNCC3)cc12 [Example 16, 1-isopropyl-5-(3-isopropyl-5-(piperidin-4-yl)-1H-indol-2-yl)pyridin-2(1H)-one]
IC50 (human TLR9): 914 nM
IC50 (human TLR8): 173 nM
IC50 (human TLR7): 302 nM

CC(C)c1c(-c2cc(-c3ccccc3)c(=O)n(C)c2)[nH]c2ccc(C3CCN(CC(=O)N(C)C)CC3)cc12 [Example 170, 2-(4-(3-isopropyl-2-(1-methyl-6-oxo-5-phenyl-1,6-dihydropyridin-3-yl)-1H-indol-5-yl)piperidin-1-yl)-N,N-dimethylacetamide]
IC50 (human TLR9): 2080 nM
IC50 (human TLR8): 14.4 nM
IC50 (human TLR7): 19.8 nM

CC(C)c1c(-c2cc(-c3cncnc3)c(=O)n(C)c2)[nH]c2ccc(C3CCN(CC4CCOCC4)CC3)cc12 [Example 100, 5-(3-isopropyl-5-(1-((tetrahydro-2H-pyran-4-yl)methyl)piperidin-4-yl)-1H-indol-2-yl)-1-methyl-3-(pyrimidin-5-yl)pyridin-2(1H)-one]
IC50 (human TLR9): 3060 nM
IC50 (human TLR8): 2.3 nM
IC50 (human TLR7): 21.5 nM

Cc1cc(-c2[nH]c3ccc(C4CCN(C(C)C)CC4)cc3c2C(C)C)cn(C)c1=O [Example 182, 5-(3-isopropyl-5-(1-isopropylpiperidin-4-yl)-1H-indol-2-yl)-1,3-dimethylpyridin-2(1H)-one]
IC50 (human TLR9): 5550 nM
IC50 (human TLR8): 7.3 nM
IC50 (human TLR7): 5.9 nM

CCn1cc(-c2[nH]c3ccc(C4CCNCC4)cc3c2C(C)C)cc(Cl)c1=O [Example 32, 3-chloro-1-ethyl-5-(3-isopropyl-5-(piperidin-4-yl)-1H-indol-2-yl) pyridin-2(1H)-one]
IC50 (human TLR9): 1070 nM
IC50 (human TLR8): 17.2 nM
IC50 (human TLR7): 1.8 nM

CCc1cc(-c2[nH]c3ccc(C4CCNCC4)cc3c2C(C)C)cn(CC)c1=O [Example 68, 1,3-diethyl-5-(3-isopropyl-5-(piperidin-4-yl)-1H-indol-2-yl)pyridin-2(1H)-one]
IC50 (human TLR9): 5360 nM
IC50 (human TLR8): 9.8 nM
IC50 (human TLR7): 8.5 nM

CC(C)c1c(-c2cc(-c3cncnc3)c(=O)n(C)c2)[nH]c2ccc(C3CCNCC3)cc12 [Example 54, 5-(3-isopropyl-5-(piperidin-4-yl)-1H-indol-2-yl)-1-methyl-3-(pyrimidin-5-yl)pyridin-2(1H)-one]
IC50 (human TLR9): 753 nM
IC50 (human TLR8): 5.9 nM
IC50 (human TLR7): 23.4 nM

CCn1cc(-c2[nH]c3ccc(C4CCN(C(=O)CN(C)C)CC4)cc3c2C(C)C)cc(C)c1=O [Example 282, 5-(5-(1-(dimethylglycyl)piperidin-4-yl)-3-isopropyl-1H-indol-2-yl)-1-ethyl-3-methylpyridin-2(1H)-one]
IC50 (human TLR9): 6270 nM
IC50 (human TLR8): 7 nM
IC50 (human TLR7): 5.2 nM

Cc1c(-c2[nH]c3ccc(C4CCN(CC5(O)CCOCC5)CC4)cc3c2C(C)C)cn(C)c(=O)c1C [Example 319, 5-(5-(1-((4-hydroxytetrahydro-2H-pyran-4-yl)methyl)piperidin-4-yl)-3-isopropyl-1H-indol-2-yl)-1,3,4-trimethylpyridin-2(1H)-one]
IC50 (human TLR9): 4330 nM
IC50 (human TLR8): 1.6 nM
IC50 (human TLR7): 10.9 nM

COCc1cc(-c2[nH]c3ccc(C4CCN(CC(C)(C)O)CC4)cc3c2C(C)C)cn(C)c1=O [Example 323, 5-(5-(1-(2-hydroxy-2-methylpropyl)piperidin-4-yl)-3-isopropyl-1H-indol-2-yl)-3-(methoxymethyl)-1-methylpyridin-2(1H)-one]
IC50 (human TLR9): 7180 nM
IC50 (human TLR8): 13.9 nM
IC50 (human TLR7): 18.4 nM

CCc1c(-c2cn(C)c(=O)c(Cl)c2C)[nH]c2ccc(C3CCN(CC(=O)N(C)C)CC3)cc12 [Example 157, 2-(4-(2-(5-chloro-1,4-dimethyl-6-oxo-1,6-dihydropyridin-3-yl)-3-ethyl-1H-indol-5-yl)piperidin-1-yl)-N,N-dimethylacetamide]
IC50 (human TLR9): 6390 nM
IC50 (human TLR8): 12.2 nM
IC50 (human TLR7): 12.8 nM

COc1cc(-c2[nH]c3ccc(C4CCN(C5CCOCC5)CC4)cc3c2C(C)C)cn(C)c1=O [Example 201, 5-(3-isopropyl-5-(1-(tetrahydro-2H-pyran-4-yl)piperidin-4-yl)-1H-indol-2-yl)-3-methoxy-1-methylpyridin-2(1H)-one]
IC50 (human TLR9): 959 nM
IC50 (human TLR8): 4.4 nM
IC50 (human TLR7): 4 nM

CC(C)c1c(-c2cc(CO)c(=O)n(C)c2)[nH]c2ccc(C3CCNCC3)cc12 [Example 70, 3-(hydroxymethyl)-5-(3-isopropyl-5-(piperidin-4-yl)-1H-indol-2-yl)-1-methylpyridin-2(1H)-one]
IC50 (human TLR9): 2450 nM
IC50 (human TLR8): 26.1 nM
IC50 (human TLR7): 8.6 nM
